“Also recorded” adds a separate entry of the source.
Experiments:
[1] = target: T1, human mu (MOP) receptor (Homo sapiens, UniProt P35372); test: Receptor binding assay, μ (MOP) (h) (agonist radioligand)
T1 construct: Cerep
Text: (§1) Receptor binding assays (Table 1 and FIGS. 1-4)

[2] = target: opioid (non-selective) receptor; test: Receptor binding assay, opioid (non-selective) (antagonist radioligand)
Text: as §1

[3] = target: T2, human delta 2 (DOP) receptor (Homo sapiens, UniProt P41143); test: Receptor binding assay, δ2 (DOP) (h) (agonist radioligand)
T2 construct: Cerep
Text: as §1

[4] = In vivo pharmacokinetics and brain partition study; details: rats, fasted, single 1 mg/kg iv dose
Experimental: single 1 mg/kg iv dose administered in rats under fasted conditions plasma concentrations determined at 10 time points (2 mins -24 hrs) brain partition ratio determined at 1 and 4 hours

[5] = target: kappa opioid receptor (Homo sapiens, UniProt P41145); test: Cellular functional assay, kappa opioid receptor; assay type: cell-based; details: EC50 values were not determined
[6] = target: mu opioid receptor (Homo sapiens, UniProt P35372); test: Cellular functional assay, mu opioid receptor; assay type: cell-based; details: EC50 values were not determined
[7] = target: T3, kappa (KOP) receptor (Rattus norvegicus, UniProt P34975); test: Receptor binding assay, κ (KOP) (agonist radioligand)
T3 construct: Cerep
Text: as §1

T3 sequence (P34975 whole entry): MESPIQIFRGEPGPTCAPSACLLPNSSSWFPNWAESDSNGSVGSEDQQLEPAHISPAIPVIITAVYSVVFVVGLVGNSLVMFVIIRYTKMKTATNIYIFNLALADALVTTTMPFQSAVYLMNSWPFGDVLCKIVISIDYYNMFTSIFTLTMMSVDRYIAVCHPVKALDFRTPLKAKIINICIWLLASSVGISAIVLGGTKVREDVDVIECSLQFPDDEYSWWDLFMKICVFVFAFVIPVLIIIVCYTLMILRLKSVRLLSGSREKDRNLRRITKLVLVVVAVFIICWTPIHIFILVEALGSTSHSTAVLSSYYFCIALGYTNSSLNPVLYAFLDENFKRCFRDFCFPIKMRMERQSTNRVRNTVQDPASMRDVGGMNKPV
T1 sequence (P35372 whole entry): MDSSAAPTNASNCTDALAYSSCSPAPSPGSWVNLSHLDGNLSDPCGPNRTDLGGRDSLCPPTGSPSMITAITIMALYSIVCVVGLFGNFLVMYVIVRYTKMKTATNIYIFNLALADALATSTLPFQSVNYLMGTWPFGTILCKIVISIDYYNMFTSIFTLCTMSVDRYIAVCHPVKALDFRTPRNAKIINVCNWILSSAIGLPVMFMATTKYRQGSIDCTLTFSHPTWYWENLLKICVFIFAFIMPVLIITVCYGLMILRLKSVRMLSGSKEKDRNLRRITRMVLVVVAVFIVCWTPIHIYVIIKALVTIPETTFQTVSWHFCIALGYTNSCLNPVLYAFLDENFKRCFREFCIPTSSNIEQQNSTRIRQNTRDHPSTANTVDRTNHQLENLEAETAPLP
T2 sequence (P41143 whole entry): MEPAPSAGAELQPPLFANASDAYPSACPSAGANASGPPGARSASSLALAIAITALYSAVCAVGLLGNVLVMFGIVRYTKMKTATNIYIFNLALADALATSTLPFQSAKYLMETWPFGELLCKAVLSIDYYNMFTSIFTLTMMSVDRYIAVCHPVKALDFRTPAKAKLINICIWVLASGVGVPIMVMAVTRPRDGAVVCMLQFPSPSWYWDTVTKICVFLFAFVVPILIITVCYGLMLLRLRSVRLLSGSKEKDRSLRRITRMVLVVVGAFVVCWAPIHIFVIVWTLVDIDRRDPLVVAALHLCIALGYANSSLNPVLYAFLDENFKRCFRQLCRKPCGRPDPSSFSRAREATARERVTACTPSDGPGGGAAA
kappa opioid receptor, sequence (P41145 whole entry): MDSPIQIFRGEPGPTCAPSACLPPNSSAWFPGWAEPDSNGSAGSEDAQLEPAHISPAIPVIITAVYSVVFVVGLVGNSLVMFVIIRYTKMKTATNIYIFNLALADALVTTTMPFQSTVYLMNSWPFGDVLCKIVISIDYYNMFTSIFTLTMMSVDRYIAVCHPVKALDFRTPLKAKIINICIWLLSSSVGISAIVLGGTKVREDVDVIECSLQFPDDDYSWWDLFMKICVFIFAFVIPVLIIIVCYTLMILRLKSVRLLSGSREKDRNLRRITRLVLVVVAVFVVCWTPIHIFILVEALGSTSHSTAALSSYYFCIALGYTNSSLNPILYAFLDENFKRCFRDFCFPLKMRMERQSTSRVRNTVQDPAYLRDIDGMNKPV
mu opioid receptor, sequence (P35372 whole entry): as the sequence (P35372 whole entry) above

SMILES: CN1CC[C@]23c4c5ccc(F)c4O[C@H]2[C@@H](O)C=C[C@H]3[C@H]1C5 [F-morphine]
- IC50 [1]: 370 nM
- Ki [1]: 150 nM
- nH ([1]; agonist radioligand): 0.9
- IC50 [2]: 800 nM
- Ki [2]: 580 nM
- Delta: binding [3]: no observed binding; also recorded: no significant binding up to 10 uM
- IC50 [3]: > 10000 nM
- Kp at 4 h ([4]; rat, brain/plasma, at 1 and 4 hours, read-out: brain/plasma ratio): 2 to 3
- brain partition (in words) [4]: partitions well into the brain
- function at kappa opioid receptor [5]: agonist
- function at mu opioid receptor [6]: agonist
- IC50 [7]: 8500 nM
- Ki [7]: 5600 nM
- nH ([7]; agonist radioligand): 1.1
